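These data come from cells grown in 96-well plates and exposed to compound for 48 hours at five concentrations. TGI: total growth inhibition.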
How the values were obtained:
Test in all cases: NCI tumour cell line growth inhibition, 48 h
786-0 renal = tested on: 786-0 renal
A498 renal = tested on: A498 renal
A549 NSCLC = tested on: A549 NSCLC
ACHN renal = tested on: ACHN renal
CAKI-1 renal = tested on: CAKI-1 renal
CCRF-CEM leukemia = tested on: CCRF-CEM leukemia
COLO 205 colon = tested on: COLO 205 colon
DLD-1 colon = tested on: DLD-1 colon
DMS 114 small cell lung = tested on: DMS 114 small cell lung
DMS 273 small cell lung = tested on: DMS 273 small cell lung
EKVX NSCLC = tested on: EKVX NSCLC
HCC-2998 colon = tested on: HCC-2998 colon
HCT-116 colon = tested on: HCT-116 colon
HCT-15 colon = tested on: HCT-15 colon
HL-60(TB) leukemia = tested on: HL-60(TB) leukemia
HOP-18 NSCLC = tested on: HOP-18 NSCLC
HOP-62 NSCLC = tested on: HOP-62 NSCLC
HOP-92 NSCLC = tested on: HOP-92 NSCLC
HT29 colon = tested on: HT29 colon
IGROV1 ovarian = tested on: IGROV1 ovarian
K-562 leukemia = tested on: K-562 leukemia
KM12 colon = tested on: KM12 colon
KM20L2 colon = tested on: KM20L2 colon
LOX IMVI melanoma = tested on: LOX IMVI melanoma
LXFL 529 NSCLC = tested on: LXFL 529 NSCLC
M14 melanoma = tested on: M14 melanoma
M19-MEL melanoma = tested on: M19-MEL melanoma
MALME-3M melanoma = tested on: MALME-3M melanoma
MOLT-4 leukemia = tested on: MOLT-4 leukemia
NCI-H226 lung = tested on: NCI-H226 lung
NCI-H23 lung = tested on: NCI-H23 lung
NCI-H460 lung = tested on: NCI-H460 lung
NCI-H522 lung = tested on: NCI-H522 lung
OVCAR-3 ovarian = tested on: OVCAR-3 ovarian
OVCAR-4 ovarian = tested on: OVCAR-4 ovarian
OVCAR-5 ovarian = tested on: OVCAR-5 ovarian
OVCAR-8 ovarian = tested on: OVCAR-8 ovarian
RPMI-8226 leukemia = tested on: RPMI-8226 leukemia
RXF 393 renal = tested on: RXF 393 renal
SF-268 CNS = tested on: SF-268 CNS
SF-295 CNS = tested on: SF-295 CNS
SF-539 CNS = tested on: SF-539 CNS
SK-MEL-2 melanoma = tested on: SK-MEL-2 melanoma
SK-MEL-28 melanoma = tested on: SK-MEL-28 melanoma
SK-MEL-5 melanoma = tested on: SK-MEL-5 melanoma
SK-OV-3 ovarian = tested on: SK-OV-3 ovarian
SN12C renal = tested on: SN12C renal
SNB-19 CNS = tested on: SNB-19 CNS
SNB-75 CNS = tested on: SNB-75 CNS
SNB-78 CNS = tested on: SNB-78 CNS
SR leukemia = tested on: SR leukemia
SW-620 colon = tested on: SW-620 colon
TK-10 renal = tested on: TK-10 renal
U251 CNS = tested on: U251 CNS
UACC-257 melanoma = tested on: UACC-257 melanoma
UACC-62 melanoma = tested on: UACC-62 melanoma
UO-31 renal = tested on: UO-31 renal
XF 498 CNS = tested on: XF 498 CNS

C(=C\c1ccc2ccccc2c1Nc1ccccc1)/c1ccccc1
TGI (786-0 renal): 33.9 µM
TGI (A498 renal): 47.6 µM
TGI (A549 NSCLC): > 100 µM
TGI (ACHN renal): > 63.9 µM
TGI (CAKI-1 renal): > 83.8 µM
TGI (CCRF-CEM leukemia): 30.5 µM
TGI (COLO 205 colon): > 100 µM
TGI (DLD-1 colon): > 100 µM
TGI (DMS 114 small cell lung): > 100 µM
TGI (DMS 273 small cell lung): > 100 µM
TGI (EKVX NSCLC): > 100 µM
TGI (HCC-2998 colon): > 100 µM
TGI (HCT-116 colon): 46.4 µM
TGI (HCT-15 colon): > 100 µM
TGI (HL-60(TB) leukemia): > 100 µM
TGI (HOP-18 NSCLC): > 88.1 µM
TGI (HOP-62 NSCLC): 62.5 µM
TGI (HOP-92 NSCLC): 45.5 µM
TGI (HT29 colon): > 100 µM
TGI (IGROV1 ovarian): > 100 µM
TGI (K-562 leukemia): 26.1 µM
TGI (KM12 colon): > 100 µM
TGI (KM20L2 colon): > 100 µM
TGI (LOX IMVI melanoma): > 100 µM
TGI (LXFL 529 NSCLC): > 100 µM
TGI (M14 melanoma): 49.6 µM
TGI (M19-MEL melanoma): > 100 µM
TGI (MALME-3M melanoma): > 78.8 µM
TGI (MOLT-4 leukemia): 36.9 µM
TGI (NCI-H226 lung): > 100 µM
TGI (NCI-H23 lung): > 87.6 µM
TGI (NCI-H460 lung): > 59.2 µM
TGI (NCI-H522 lung): > 100 µM
TGI (OVCAR-3 ovarian): 60.4 µM
TGI (OVCAR-4 ovarian): 23.2 µM
TGI (OVCAR-5 ovarian): > 100 µM
TGI (OVCAR-8 ovarian): 81.1 µM
TGI (RPMI-8226 leukemia): > 72.5 µM
TGI (RXF 393 renal): 37.6 µM
TGI (SF-268 CNS): > 100 µM
TGI (SF-295 CNS): > 100 µM
TGI (SF-539 CNS): > 100 µM
TGI (SK-MEL-2 melanoma): > 100 µM
TGI (SK-MEL-28 melanoma): > 88.2 µM
TGI (SK-MEL-5 melanoma): > 100 µM
TGI (SK-OV-3 ovarian): > 83 µM
TGI (SN12C renal): > 100 µM
TGI (SNB-19 CNS): > 90.5 µM
TGI (SNB-75 CNS): 39.9 µM
TGI (SNB-78 CNS): > 91.8 µM
TGI (SR leukemia): 33.6 µM
TGI (SW-620 colon): > 100 µM
TGI (TK-10 renal): > 100 µM
TGI (U251 CNS): > 64.1 µM
TGI (UACC-257 melanoma): > 100 µM
TGI (UACC-62 melanoma): > 100 µM
TGI (UO-31 renal): > 72.2 µM
TGI (XF 498 CNS): 40.6 µM

CCCC(O)c1ccc2[nH]c3c(C)cc([N+](=O)[O-])c(C)c3c2c1 (configuration not stated)
TGI (786-0 renal): > 100 µM
TGI (A549 NSCLC): > 100 µM
TGI (ACHN renal): > 100 µM
TGI (CAKI-1 renal): > 100 µM
TGI (CCRF-CEM leukemia): > 100 µM
TGI (COLO 205 colon): > 100 µM
TGI (DLD-1 colon): > 100 µM
TGI (DMS 114 small cell lung): > 100 µM
TGI (DMS 273 small cell lung): > 100 µM
TGI (EKVX NSCLC): > 100 µM
TGI (HCC-2998 colon): > 100 µM
TGI (HCT-116 colon): > 100 µM
TGI (HCT-15 colon): > 100 µM
TGI (HL-60(TB) leukemia): > 100 µM
TGI (HOP-18 NSCLC): > 100 µM
TGI (HOP-62 NSCLC): > 100 µM
TGI (HT29 colon): > 100 µM
TGI (K-562 leukemia): > 100 µM
TGI (KM12 colon): > 100 µM
TGI (LOX IMVI melanoma): > 100 µM
TGI (M14 melanoma): > 100 µM
TGI (M19-MEL melanoma): > 100 µM
TGI (MALME-3M melanoma): > 100 µM
TGI (MOLT-4 leukemia): > 100 µM
TGI (NCI-H226 lung): > 100 µM
TGI (NCI-H23 lung): > 100 µM
TGI (NCI-H460 lung): > 100 µM
TGI (NCI-H522 lung): > 100 µM
TGI (OVCAR-3 ovarian): > 100 µM
TGI (OVCAR-4 ovarian): > 100 µM
TGI (OVCAR-5 ovarian): > 100 µM
TGI (OVCAR-8 ovarian): > 100 µM
TGI (RPMI-8226 leukemia): > 100 µM
TGI (SF-268 CNS): > 100 µM
TGI (SF-295 CNS): > 100 µM
TGI (SF-539 CNS): > 100 µM
TGI (SK-MEL-2 melanoma): > 100 µM
TGI (SK-MEL-28 melanoma): > 100 µM
TGI (SK-MEL-5 melanoma): > 100 µM
TGI (SN12C renal): > 100 µM
TGI (SNB-19 CNS): > 100 µM
TGI (SNB-75 CNS): > 100 µM
TGI (SNB-78 CNS): > 100 µM
TGI (SR leukemia): > 100 µM
TGI (SW-620 colon): > 100 µM
TGI (TK-10 renal): > 100 µM
TGI (UACC-257 melanoma): > 100 µM
TGI (UO-31 renal): > 100 µM
TGI (XF 498 CNS): > 100 µM

Reference: PubChem BioAssay (NCI)
